Values after ≈ are worked out from the molar mass of the structure shown.
Legend:
Format in all cases: functional
[1] = test system: Bacteroides fragilis; assay: Antibacterial activity against Bacteroides fragilis assessed as percent resistant isolates by agar dilution method
[2] = test system: Parabacteroides distasonis; assay: Antibacterial activity against Bacteroides distasonis assessed as percent resistant isolates by agar dilution method
[3] = test system: Bacteroides stercoris; assay: Antibacterial activity against Bacteroides stercoris assessed as percent resistant isolates by agar dilution method; conditions: pooled result: one value given for 4 cell lines, strains, targets or settings
[4] = test system: Phocaeicola vulgatus; assay: Antibacterial activity against Bacteroides vulgatus assessed as percent resistant isolates by agar dilution method
[5] = test system: Bacteroides thetaiotaomicron; assay: Antibacterial activity against Bacteroides thetaiotaomicron isolate by agar dilution method
[6] = test system: Bacteroides eggerthii; assay: Antibacterial activity against Bacteroides eggerthii isolate by agar dilution method
[7] = test system: Bacteroides stercoris; assay: Antibacterial activity against Bacteroides stercoris isolate by agar dilution method
[8] = test system: Bacteroides uniformis; assay: Antibacterial activity against Bacteroides uniformis isolate by agar dilution method
[9] = test system: Parabacteroides distasonis; assay: Antibacterial activity against Bacteroides distasonis isolate by agar dilution method
[10] = test system: Phocaeicola vulgatus; assay: Antibacterial activity against Bacteroides vulgatus isolate by agar dilution method
[11] = test system: Bacteroides caccae; assay: Antibacterial activity against Bacteroides caccae isolate by agar dilution method
[12] = test system: Bacteroides uniformis; assay: Antibacterial activity against Bacteroides uniformis assessed as percent resistant isolates by agar dilution method
[13] = test system: Bacteroides thetaiotaomicron; assay: Antibacterial activity against Bacteroides thetaiotaomicron assessed as percent resistant isolates by agar dilution method
[14] = test system: Bacteroides sp.; assay: Antibacterial activity against Bacteroides spp. isolate by agar dilution method
[15] = test system: Bacteroides fragilis; assay: Antibacterial activity against Bacteroides fragilis isolate by agar dilution method
[16] = test system: Parabacteroides merdae; assay: Antibacterial activity against Bacteroides merdae isolate by agar dilution method
[17] = test system: Bacteroides ovatus; assay: Antibacterial activity against Bacteroides ovatus isolate by agar dilution method
[18] = test system: Bacteroides ovatus; assay: Antibacterial activity against Bacteroides ovatus assessed as percent resistant isolates by agar dilution method
[19] = test system: Bacteroides caccae; assay: Antibacterial activity against Bacteroides caccae assessed as percent resistant isolates by agar dilution method
[20] = test system: Bacteroides ovatus; assay: Antibacterial activity against Bacteroides ovatus isolate by agar dilution method in presence of clavulanate
[21] = test system: Bacteroides stercoris; assay: Antibacterial activity against Bacteroides stercoris isolate by agar dilution method in presence of clavulanate
[22] = test system: Phocaeicola vulgatus; assay: Antibacterial activity against Bacteroides vulgatus assessed as percent resistant isolates by agar dilution method in presence of clavulanate
[23] = test system: Bacteroides ovatus; assay: Antibacterial activity against Bacteroides ovatus assessed as percent resistant isolates by agar dilution method in presence of clavulanate
[24] = test system: Bacteroides uniformis; assay: Antibacterial activity against Bacteroides uniformis assessed as percent resistant isolates by agar dilution method in presence of clavulanate
[25] = test system: Bacteroides caccae; assay: Antibacterial activity against Bacteroides caccae assessed as percent resistant isolates by agar dilution method in presence of clavulanate
[26] = test system: Bacteroides fragilis; assay: Antibacterial activity against Bacteroides fragilis isolate by agar dilution method in presence of clavulanate
[27] = test system: Bacteroides thetaiotaomicron; assay: Antibacterial activity against Bacteroides thetaiotaomicron isolate by agar dilution method in presence of clavulanate
[28] = test system: Bacteroides caccae; assay: Antibacterial activity against Bacteroides caccae isolate by agar dilution method in presence of clavulanate
[29] = test system: Bacteroides uniformis; assay: Antibacterial activity against Bacteroides uniformis isolate by agar dilution method in presence of clavulanate
[30] = test system: Bacteroides fragilis; assay: Antibacterial activity against Bacteroides fragilis assessed as percent resistant isolates by agar dilution method in presence of clavulanate
[31] = test system: Bacteroides sp.; assay: Antibacterial activity against Bacteroides spp. isolate by agar dilution method in presence of clavulanate
[32] = test system: Bacteroides thetaiotaomicron; assay: Antibacterial activity against Bacteroides thetaiotaomicron assessed as percent resistant isolates by agar dilution me in presence of clavulanate thod
[33] = test system: Bacteroides sp.; assay: Antibacterial activity against Bacteroides spp. assessed as percent resistant isolates by agar dilution method in presence of clavulanate; conditions: pooled result: one value given for 4 cell lines, strains, targets or settings
[34] = test system: Bacteroides eggerthii; assay: Antibacterial activity against Bacteroides eggerthii isolate by agar dilution method in presence of clavulanate
[35] = test system: Parabacteroides merdae; assay: Antibacterial activity against Bacteroides merdae isolate by agar dilution method in presence of clavulanate
[36] = test system: Parabacteroides distasonis; assay: Antibacterial activity against Bacteroides distasonis isolate by agar dilution method in presence of clavulanate
[37] = test system: Phocaeicola vulgatus; assay: Antibacterial activity against Bacteroides vulgatus isolate by agar dilution method in presence of clavulanate
[38] = test system: Parabacteroides distasonis; assay: Antibacterial activity against Bacteroides distasonis assessed as percent resistant isolates by agar dilution method in presence of clavulanate

CO[C@@]1(NC(=O)Cc2cccs2)C(=O)N2C(C(=O)O)=C(COC(N)=O)CS[C@@H]21 [CEFOXITIN]
Activity [1]: 6.4% | Activity [2]: 25.6% | Activity [3]: 23.9% | Activity [4]: 17% | MIC50 [5]: 32 µg/mL (≈ 74.9 µM) | MIC90 [5]: 64 µg/mL (≈ 150 µM) | MIC50 [6]: 16 µg/mL (≈ 37.4 µM) | MIC90 [6]: 64 µg/mL (≈ 150 µM) | MIC50 [7]: 16 µg/mL (≈ 37.4 µM) | MIC90 [7]: 64 µg/mL (≈ 150 µM) | MIC50 [8]: 16 µg/mL (≈ 37.4 µM) | MIC90 [8]: 32 µg/mL (≈ 74.9 µM) | MIC50 [9]: 32 µg/mL (≈ 74.9 µM) | MIC90 [9]: 64 µg/mL (≈ 150 µM) | MIC50 [10]: 16 µg/mL (≈ 37.4 µM) | MIC90 [10]: 64 µg/mL (≈ 150 µM) | MIC50 [11]: 16 µg/mL (≈ 37.4 µM) | MIC90 [11]: 32 µg/mL (≈ 74.9 µM) | Activity [12]: 9.4% | Activity [13]: 23.6% | MIC50 [14]: 16 µg/mL (≈ 37.4 µM) | MIC90 [14]: 64 µg/mL (≈ 150 µM) | MIC50 [15]: 8 µg/mL (≈ 18.7 µM) | MIC90 [15]: 32 µg/mL (≈ 74.9 µM) | MIC50 [16]: 16 µg/mL (≈ 37.4 µM) | MIC90 [16]: 64 µg/mL (≈ 150 µM) | MIC50 [17]: 16 µg/mL (≈ 37.4 µM) | MIC90 [17]: 64 µg/mL (≈ 150 µM) | Activity [18]: 12.2% | Activity [19]: 8.9%

CC1(C)S[C@@H]2[C@H](NC(=O)[C@H](N)c3ccc(O)cc3)C(=O)N2[C@H]1C(=O)O [AMOXICILLIN]
MIC50 [20]: 1 µg/mL | MIC90 [20]: 16 µg/mL | MIC50 [21]: 2 µg/mL | MIC90 [21]: 16 µg/mL | Activity [22]: 21.3% | Activity [23]: 17.1% | Activity [24]: 12.3% | Activity [25]: 20% | MIC50 [26]: 1 µg/mL | MIC90 [26]: 8 µg/mL | MIC50 [27]: 2 µg/mL | MIC90 [27]: 16 µg/mL | MIC50 [28]: 2 µg/mL | MIC90 [28]: 16 µg/mL | MIC50 [29]: 1 µg/mL | MIC90 [29]: 16 µg/mL | Activity [30]: 6.2% | MIC50 [31]: 2 µg/mL | MIC90 [31]: 16 µg/mL | Activity [32]: 4.9% | Activity [33]: 19.6% | MIC50 [34]: 2 µg/mL | MIC90 [34]: 16 µg/mL | MIC50 [35]: 2 µg/mL | MIC90 [35]: 16 µg/mL | MIC50 [36]: 4 µg/mL | MIC90 [36]: 16 µg/mL | MIC50 [37]: 2 µg/mL | MIC90 [37]: 16 µg/mL | Activity [38]: 16.3%

Reference: ChEMBL document CHEMBL1275453, “Resistance trends of the Bacteroides fragilis group over a 10-year period, 1997 to 2006, in Madrid, Spain” (2008)
